Source: the supplement of paper PMC10307832

Tests used:
Test in all cases: relative viability (nuclei count vs DMSO), 5 days (fraction); higher = more cells survive
Axitinib + Crizotinib = compound: CNC(=O)c1ccccc1Sc1ccc2c(/C=C/c3ccccn3)n[nH]c2c1 [Axitinib] + C[C@@H](Oc1cc(-c2cnn(C3CCNCC3)c2)cnc1N)c1c(Cl)ccc(F)c1Cl [Crizotinib] (partner 1 µM)
How it was run: (§1)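 Cells from lung cancer lines were seeded into 1536-well plates and, one day later, dosed by pin tool. Treatments were either a single drug or a fixed dose of an anchor drug with five library-drug doses (not always all listed) in √10 steps. After 5 days, nuclei were stained in a one-step fixation (final 0.05% Triton X-100, 1% formaldehyde, 1 ug/ml Hoechst) and counted on 4× images, and relative viability is the treated-to-vehicle nuclei ratio, as the median of duplicate plates.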

Axitinib + Luminespib = compound: CNC(=O)c1ccccc1Sc1ccc2c(/C=C/c3ccccn3)n[nH]c2c1 [Axitinib] + CCNC(=O)c1noc(-c2cc(C(C)C)c(O)cc2O)c1-c1ccc(CN2CCOCC2)cc1 [Luminespib] (partner 0.01 µM)
How it was run: as §1

Bemcentinib + Lapatinib = compound: Nc1nc(Nc2ccc3c(c2)CC[C@@H](N2CCCC2)CC3)nn1-c1cc2c(nn1)-c1ccccc1CCC2 [Bemcentinib] + CS(=O)(=O)CCNCc1ccc(-c2ccc3ncnc(Nc4ccc(OCc5cccc(F)c5)c(Cl)c4)c3c2)o1 [Lapatinib] (partner 2 µM)
How it was run: as §1

[1] = compound: CC1=CC=C(C=C1)C(=O)CN2C3=C(CCCC3)SC2=N [Pifithrin_alpha] + N=C(N)NC(=N)NCCc1ccccc1 [Phenformin] (partner 250 µM)
How it was run: as §1

Cell Line | relative viability (Axitinib + Crizotinib; first compound 0.005 µM) | relative viability (Axitinib + Crizotinib; first compound 0.01581 µM) | relative viability (Axitinib + Crizotinib; first compound 0.05 µM) | relative viability (Axitinib + Crizotinib; first compound 0.1581 µM) | relative viability (Axitinib + Crizotinib; first compound 0.5 µM) | relative viability (Axitinib + Luminespib; first compound 0.005 µM) | relative viability (Axitinib + Luminespib; first compound 0.05 µM) | relative viability (Axitinib + Luminespib; first compound 0.1581 µM) | relative viability (Axitinib + Luminespib; first compound 0.5 µM) | relative viability (Bemcentinib + Lapatinib; first compound 0.04 µM) | relative viability (Bemcentinib + Lapatinib; first compound 0.1265 µM) | relative viability (Bemcentinib + Lapatinib; first compound 0.4 µM) | relative viability (Bemcentinib + Lapatinib; first compound 1.265 µM) | relative viability (Bemcentinib + Lapatinib; first compound 4 µM) | relative viability ([1]; first compound 1 µM) | relative viability ([1]; first compound 3.162 µM) | relative viability ([1]; first compound 10 µM) | relative viability ([1]; first compound 100 µM) | relative viability (Axitinib + Luminespib; first compound 0.01581 µM) | relative viability ([1]; first compound 31.62 µM)
NCI-H23 | 0.532 | 0.529 | 0.619 | 0.436 | 0.656 | 0.21 | 0.233 | 0.231 | 0.219 | 0.966 | 1.28 | 1.32 | 1.19 | 1.1 | 0.853 | 0.734 | 0.764 | 0.753 | – | –
NCI-H322M | 0.889 | 0.828 | 0.926 | 0.888 | 0.889 | 1.06 | 0.833 | 0.796 | 1.07 | 0.576 | 0.635 | 0.574 | 0.645 | 0.611 | 0.825 | 0.728 | 0.869 | 0.728 | 0.845 | 0.713
NCI-H358 | 0.401 | 0.636 | 0.625 | 0.549 | 0.596 | 0.478 | 0.436 | 0.338 | 0.325 | 0.496 | 0.415 | 0.373 | 0.531 | 0.464 | 0.353 | 0.389 | 0.357 | 0.344 | 0.364 | 0.272
NCI-H460 | 1.05 | 0.876 | 0.915 | 0.816 | 1.13 | 0.0293 | 0.0318 | 0.0323 | 0.0338 | 0.931 | 1.46 | 1.3 | 1.14 | 1.12 | 0.494 | 0.576 | 0.473 | 0.443 | 0.0335 | 0.179
NCI-H520 | 0.72 | 0.829 | 0.734 | 0.542 | 0.776 | 0.228 | 0.23 | 0.222 | 0.284 | 0.855 | 0.943 | 1.08 | 0.768 | 1.05 | 0.579 | 0.554 | 0.566 | 0.581 | 0.239 | –
NCI-H596 | 1.03 | 1.06 | 1.06 | 0.993 | 0.495 | 1.12 | 1 | 0.93 | 1.04 | 1.07 | 1.13 | 1.09 | 1.09 | 1.09 | 0.761 | 0.737 | 0.84 | 0.494 | 1.09 | 0.766
NCI-H647 | 1.12 | 1.01 | 1.04 | 1.09 | 1.23 | 0.292 | 0.168 | 0.227 | 0.285 | 1.2 | 1.25 | 1.1 | 0.978 | 1.22 | 0.58 | 0.674 | 0.548 | 0.4 | 0.167 | 0.299
NCI-H661 | 0.976 | 1.03 | 0.995 | 1.02 | 1.08 | 0.901 | 0.9 | 0.998 | 0.952 | 0.484 | 0.431 | 0.491 | 0.567 | 0.469 | 0.24 | 0.29 | 0.292 | 0.282 | 0.924 | 0.308
NCI-H727 | 0.823 | 0.693 | 0.872 | 0.793 | 0.985 | 0.325 | 0.345 | 0.346 | 0.278 | 0.713 | 0.875 | 0.877 | 0.864 | 1.01 | 0.604 | 0.572 | 0.538 | 0.501 | 0.276 | –
NCI-H838 | 0.852 | 0.945 | 0.874 | 0.886 | 0.953 | 0.247 | 0.334 | 0.24 | 0.246 | 1.06 | 1.16 | 0.914 | 0.967 | 1.26 | 0.548 | 0.514 | 0.554 | 0.444 | 0.33 | 0.412
NCI-H1355 | 1.13 | 1.06 | 1.1 | 0.948 | 1.29 | 0.822 | 0.748 | 0.747 | 0.659 | 0.908 | 1.1 | 1.04 | 1.13 | 1.07 | 0.456 | 0.401 | 0.378 | 0.38 | 0.73 | 0.351
NCI-H1437 | 1.07 | 0.927 | 0.863 | 0.934 | 0.93 | 1.12 | 1.07 | 1.16 | 1.08 | 0.798 | 0.764 | 0.854 | 0.771 | 0.882 | 0.296 | 0.258 | 0.294 | 0.259 | 1.1 | 0.264
NCI-H1563 | 0.957 | 0.791 | 0.877 | 0.833 | 0.907 | 0.401 | 0.487 | 0.549 | 0.446 | 0.907 | 0.887 | 1.04 | 0.976 | 0.958 | 0.622 | 0.706 | 0.643 | 0.616 | 0.594 | 0.601
NCI-H1650 | 0.979 | 0.949 | 1.04 | 0.947 | 1.13 | 0.195 | 0.192 | 0.203 | 0.236 | 0.7 | 0.817 | 0.74 | 0.921 | 0.79 | – | 0.446 | 0.333 | 0.349 | 0.194 | 0.273
NCI-H1651 | 0.904 | 0.858 | 0.707 | 0.842 | 0.861 | 0.941 | 1.03 | 0.745 | 1 | 0.836 | 0.979 | 1.1 | 0.815 | 0.822 | 0.345 | 0.351 | 0.387 | 0.317 | 0.965 | 0.26
NCI-H1666 | 1.29 | 0.97 | 1.12 | 0.931 | 1.14 | 0.974 | 1.01 | 1.03 | 0.957 | 0.668 | 0.813 | 0.599 | 0.649 | 0.606 | 0.525 | 0.52 | 0.425 | 0.436 | 0.975 | 0.455
